Key:
[1] = system: wild type ER; assay: ERE-TATA-luciferase transactivation of wild type ER in COS-7 cells; assay type: cell-based; conditions: COS-7, wild type ER, presence of ligand
Description: FIG. 1. Mapping of the region of cyclin D1 required for ER-mediated transactivation. • (A) The effect of cyclin D1 deletion mutants on ER activation in the presence of ligand. The cyclin D1 derivatives used in this study are shown in the left panel; right side of Figure represents the relative capacity of the mutants to potentiate ERE-dependent transcription. ER-negative COS-7 cells were transfected with expression vectors for wild type ER (200 ng), cyclin D1 or cyclin D1 mutants (2.5 μg), an internal control §-galactosidase plasmid (0.5 μg) and an ERE-TATA-luciferase reporter (3 μg). The effect on ER transactivation of wild type cyclin D1 was set to 100%. These studies were performed in three separate experiments and expressed as mean values with standard deviation less then […]. The alignment of leucine-rich motif of ER with D-type cyclins are shown on the bottom; the leucine-rich motif in cyclin D1 is indicated as a dark box. The identifiers for the sequences shown are as follows: Cyclin D1 (SEQ ID NO:11), Estrogen receptor (SEQ ID NO:12), the Cyclin D2 (SEQ ID NO:13), and the Cyclin D3 (SEQ ID NO:14). • (B) ER activation by D-type cyclins, cyclin D1 L254/255A point mutant (D1-LALA) and SRC-1 in the presence of ligand. COS-7 cells were transfected with D-type cyclin expression vectors, cyclin D1 Leucine-to-Alanine point mutant (D1-LALA) or SRC-1 expression vector together with wild type ER expression vector, an ERE-TATA-luciferase reporter plasmid and the internal control β-galactosidase construct. Data are expressed as relative luciferase activity compared with basal ERE-luciferase activity of wild type ER and are normalized for transfection efficiencies.
FIG. 3. Role of coactivators in cyclin D1—induced transactivation. • (A) Effect of a dominant negative form of SRC-1 (SRC1-DN) on ER transactivation. SRC1-DN encoding amino acids 1245-1441 of SRC-1 (1, 2.5 and 5 μg) was introduced by transient transfection together with wild type ER (200 ng) and was tested for its ability to modulate ERE-dependent transcription. • (B) Effect of SRCI-DN on SRC-1 and TIF 2 mediated ER transactivation. SRC-1 (3 μg) or TIF-2 (3 μg) were transfected with SRC1-DN (3 μg) and tested for ER transactivation. • (C) Effect of SRC1-DN on cyclin D1-induced transactivation of ER 1-535 mutant. Cyclin D1 was cotransfected with SRC1-DN (1, 2.5, 5 μg) and tested for its effect on an ER harboring a deletion of coactivator binding site in helix 12 (ER 1-535). • (D) Effect of SRC1-DN on cyclin D1-induced transactivation of ER L543/544A mutant. Cyclin D1 and SRC1-DN (1, 2.5, 5 gg) were transfected and tested for the activity of ER helix 12 point mutant (ER L543/544A). The transient transfections (A-C) were performed in COS-7 cells, which were maintained in DMEM with 10 nM ligand. The relative activity was calculated by normalizing to the internal control and was divided by luciferase activity of ER (mutant) in the presence of ligand. The transfection for each set of conditions were done at least in four independent experiments and expressed as average ±SD.
To study how cyclin D1 activates ER, cyclin D1 deletion mutants were tested for their effect on ER-transactivation. COS-7 cells were transfected with cyclin D1 mutants, together with ER and a luciferase reporter gene construct driven by a minimal TATA promoter linked to an estrogen response element (ERE). […] This part of the protein is not involved in CDK interaction and is poorly conserved among the different cyclins. […] To test the relevance of this leucine-rich domain of cyclin D1 in ER activation, a cyclin D1 mutant was constructed in which leucines 254 and 255 were mutated to alanines (D1 L254/255A). This mutation in cyclin D1 is similar to the mutation in ER (ER L543/544A) that interferes with coactivator binding to AF-2 (Danielian et al., 1992). […]

[2] = system: MCF-7 breast cancer cells; assay: Cell cycle profiles by FACS after transient transfection; assay type: cell-based; conditions: transient transfection of MCF-7
Description: Cell cycle profiles were analysed using fluuorescence activated cell sorting (FACS)(Allen, 1990; Baldetorp et al, 1998).

Cyclin D1-LALA: cyclin D1 mutant in which leucines 254 and 255 were mutated to alanines; dominant negative
ER transactivation capacity [1]: virtually unable to activate wild type ER
effect on cell cycle [2]: arrest in the cell cycle at the G1/S checkpoint
Phase of cell cycle G0/G1 ([2]; FACS): 81.9%
Phase of cell cycle G2/M ([2]; FACS): 7.9%
Phase of cell cycle S ([2]; FACS): 10.2%

Source: patent US7012128B2, “Interaction between cyclin D1 and steroid receptor co-activators and uses thereof in assays” (TopoTarget UK Limited, priority 1998, dated 2006)
